Measured values reported in the supplement of paper PMC4862054.

Key:
Assay in all cases: normalised viability (% of control), CellTiter-Blue; higher = more viable cells (about 100 = DMSO control)
[1] = tested on: MDA-MB-468; conditions: 100 nM; incubation time: 72 h
Experimental: (§1)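 DSRT, CellTiter-Blue viability, 72 h incubation. Signal is normalised to DMSO and benzethonium chloride controls. Value is the normalised response at dose 3.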

[2] = tested on: MFM-223; conditions: 100 nM; incubation time: 72 h
Experimental: as §1

[3] = tested on: HCC1937; conditions: 100 nM; incubation time: 72 h
Experimental: as §1

[4] = tested on: DU-4475; conditions: 10 nM; incubation time: 72 h
Experimental: as §1

[5] = tested on: CAL-85-1; conditions: 10 nM; incubation time: 72 h
Experimental: as §1

[6] = tested on: Hs578T; conditions: 100 nM; incubation time: 72 h
Experimental: as §1

[7] = tested on: BT-474; conditions: 100 nM; incubation time: 72 h
Experimental: as §1

[8] = tested on: MDA-MB-436; conditions: 100 nM; incubation time: 72 h
Experimental: as §1

[9] = tested on: CAL-120; conditions: 100 nM; incubation time: 72 h
Experimental: as §1

[10] = tested on: MDA-MB-468; conditions: incubation time: 72 h
In short: (§2)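 Compound dissolved in 5 µl medium was pre-loaded into 384-well plates, and breast cancer cell lines in 20 µl suspension were seeded on top and incubated 72 h. After adding 2.5 µl CellTiter-Blue reagent for 2 h at 37 °C, fluorescence was read at 560/590 nm. Plates were normalised to vehicle (100) and a positive kill control (0), with Z'-factor quality control. Each value is normalised viability at a single listed concentration from the series.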

[11] = tested on: MFM-223; conditions: incubation time: 72 h
In short: as §2

[12] = tested on: CAL-148; conditions: incubation time: 72 h
In short: as §2

[13] = tested on: HCC1937; conditions: incubation time: 72 h
In short: as §2

[14] = tested on: DU-4475; conditions: incubation time: 72 h
In short: as §2

[15] = tested on: MDA-MB-231; conditions: incubation time: 72 h
In short: as §2

[16] = tested on: CAL-85-1; conditions: incubation time: 72 h
In short: as §2

[17] = tested on: Hs578T; conditions: incubation time: 72 h
In short: as §2

[18] = tested on: HCC1599; conditions: incubation time: 72 h
In short: as §2

[19] = tested on: CAL-51; conditions: incubation time: 72 h
In short: as §2

[20] = tested on: BT-474; conditions: incubation time: 72 h
In short: as §2

[21] = tested on: MDA-MB-436; conditions: incubation time: 72 h
In short: as §2

[22] = tested on: HDQ-P1; conditions: incubation time: 72 h
In short: as §2

[23] = tested on: BT-549; conditions: incubation time: 72 h
In short: as §2

[24] = tested on: SK-BR-3; conditions: incubation time: 72 h
In short: as §2

[25] = tested on: CAL-120; conditions: incubation time: 72 h
In short: as §2

[26] = tested on: MDA-MB-453; conditions: incubation time: 72 h
In short: as §2

[27] = tested on: HCC1143; conditions: incubation time: 72 h
In short: as §2

O=S(=O)(c1cccc2cnccc12)N1CCCNCC1 [Fasudil]
Conditions	normalised viability [%]
[1]	106
[2]	93.6
[3]	91.7
[4]	107
[5]	97.7
[6]	97.5
[7]	117
[8]	100
[9]	89.4

normalised viability [%]
Conditions	3 nM	10 nM	30 nM	100 nM	1000 nM	10000 nM
[10]	–	106	–	–	110	105
[11]	–	102	–	–	89	77.7
[12]	81	–	90.1	90.2	–	–
[13]	–	122	–	–	105	90.6
[14]	100	–	109	101	–	–
[15]	–	98.8	–	–	110	127
[16]	96.6	–	90.4	93.3	–	–
[17]	–	98.4	–	–	114	116
[18]	–	99.9	–	–	102	117
[19]	118	–	108	116	–	–
[20]	–	112	–	–	112	126
[21]	–	83.5	–	–	108	107
[22]	111	–	99	117	–	–
[23]	–	93.3	–	–	95.2	107
[24]	–	94.7	–	–	95.7	109
[25]	–	87.9	–	–	84.4	92
[26]	112	–	116	109	–	–
[27]	–	85.1	–	–	96.2	80.2

O=C(NC[C@H](O)CO)c1ccncc1Nc1ccc(I)cc1F
Conditions	normalised viability [%]
[1]	87.3
[2]	85.4
[3]	88.7
[4]	63.7
[5]	90.6
[6]	79.8
[7]	110
[8]	114
[9]	85.1

normalised viability [%]
Conditions	3 nM	10 nM	30 nM	100 nM	1000 nM	10000 nM
[10]	–	97.7	–	–	85.7	60.7
[11]	–	90.2	–	–	86	52.2
[12]	86	–	86.4	82.7	–	–
[13]	–	94.6	–	–	87.8	79.8
[14]	79.2	–	16.4	1.76	–	–
[15]	–	75.5	–	–	31.7	31.4
[16]	79.1	–	83.4	85.7	–	–
[17]	–	114	–	–	95.3	67.4
[18]	–	108	–	–	78	67.2
[19]	111	–	88.5	85.8	–	–
[20]	–	107	–	–	104	114
[21]	–	92.2	–	–	85.6	79.2
[22]	107	–	97.8	91.9	–	–
[23]	–	93.2	–	–	88.6	88
[24]	–	98.4	–	–	102	55.5
[25]	–	85.1	–	–	55.7	43.1
[26]	99.6	–	89.2	90.9	–	–
[27]	–	69.5	–	–	55.4	50.1
